Consider 10 compounds from article PMC11396972, “Synthesis of Hybrid Molecules with Imidazole-1,3,4-thiadiazole Core and Evaluation of Biological Activity on Trypanosoma cruzi and Leishmania donovani” (Molecules, 2024).

Bounds are passed on as bounds.

The test system of data set [1] is Trypanosoma cruzi epimastigotes (Y strain (TCII)). Briefly: Proliferation of T. cruzi epimastigotes, MTT test, single concentration. The class given is cell-based. As to conditions: 72 h incubation; for inhibition at 50 µM: Trypanosoma cruzi, 72 h, read-out: T. cruzi % Inhibition ± SD (antiproliferative activity); for T. cruzi % Inhibition ± SD (antiproliferative activity): 50 μM. On the procedure: A drug-free control (negative control) was included and positive controls were Metronidazole (Mtz), Benznidazole (Bnz), Amphotericin B (Aph), and Nifurtimox (Nfx), (50 μM). […] Parasites were collected in the logarithmic phase of growth before the experiments. It was arranged in plates of 96 wells, 2 × 10^5 epimastigotes per well and incubated at 28 °C for 24 h. Subsequently, the compounds to be evaluated, dissolved in DMSO (0.1% final), were added at a single concentration of 50 μM. A drug-free control (negative control) was included, and benznidazole and nifurtimox were included as positive controls. […] Finally, the cells were lysed with DMSO and the plate was read in a spectrophotometer at 570 nm.

Data set [2] is described as follows: Host cell toxicity assay, MTT. The data set is classed as cell-based. As to conditions: African green monkey, Vero cells (uninfected); Vero cells, 48 h, MTT; read-out: CC50 (μM) cytotoxicity on Vero cells. On the procedure: (§1) To determine the possible toxic effects of the compounds on the host cells, uninfected Vero cells, maintained in DMEM, BSF 10%, incubated at 37 °C in humidified 5% CO2, were counted in suspension in a Neubauer chamber and seeded at 2 × 10^4 cells/well in a 96-well plate. After 24 h compounds were added. […] A total of 5 mg/mL of MTT was added and incubated in darkness for 4 h. After this time, DMSO was added and the plate was read at 540 nm in a spectrophotometer Synergy HT (Biotek, Winooski, VT, USA).

Data set [3] has as its system Trypanosoma cruzi epimastigotes (Y strain (TCII)). The experiment in a line: Estimation of IC50 on epimastigotes of T. cruzi, MTT test. The data set is classed as cell-based. As to conditions: 72 h, eight concentrations 5–500 µM, triplicate. On the procedure:
(§2) Parasites were collected in the logarithmic phase of growth before the experiments. The test compounds, as well as the reference drugs, metronidazole, nifurtimox and amphotericin B, were previously dissolved in DMSO and then in LIT medium and added to the cultures at the required concentrations; the final DMSO concentration in cultures was 1% (v/v). Eight concentrations of each compound in the range 5–500 µM were tested and assayed in triplicate. Growth inhibition was assessed after 72 h incubation in the presence of the compounds by MTT (5 mg/mL), dissolved in PBS, and incubated for 4 h in the dark. Finally, the parasites were lysed with DMSO and the plate was read in a spectrophotometer at 570 nm.

Data set [4] deals with Leishmania donovani promastigotes (LD51 strain). The experiment in a line: Proliferation of L. donovani promastigotes, MTT test, single concentration. The class given is cell-based. The following applies: 72 h incubation, read-out: L. donovani % Inhibition ± SD (antiproliferative activity). On the procedure:
A drug-free control (negative control) was included and positive controls were Metronidazole (Mtz), Benznidazole (Bnz), Amphotericin B (Aph), and Nifurtimox (Nfx), (50 μM). […] Parasites were collected in the logarithmic phase of growth before the experiments. It was arranged in plates of 96 wells, 4 × 10^5 promastigotes per well and incubated at room temperature °C for 24 h. Subsequently, the compounds to be evaluated, dissolved in DMSO (0.1% final), were added at a single concentration of 50 μM, a drug-free control (negative control) was included, and amphotericin B was used as leishmanicidal control. To select those compounds active on promastigotes, it was incubated for 72 h after and then MTT (5 mg/mL), dissolved in PBS, was added and incubated for 4 h in the dark. Finally, the cells were lysed with DMSO and the plate was read in a spectrophotometer at 570 nm.

In a further data set the test system is Vero cells. The experiment in a line: Host cell toxicity assay, MTT. The data set is classed as cell-based. The following applies: for L. donovani (SI) selectivity index: Vero cells CC50 versus L. donovani IC50; for T. cruzi (SI) selectivity index: Vero cells CC50 versus T. cruzi IC50. The procedure: as §1
Data set [5] deals with Leishmania donovani promastigotes (LD51 strain). The experiment in a line: Estimation of IC50 on promastigotes of L. donovani, MTT test. The following applies: 72 h, eight concentrations 5–500 µM, triplicate. The data set is classed as cell-based. The procedure:
as §2

Take `CC1CS(=O)(=O)CCN1/N=C/c1ccc([N+](=O)[O-])o1` (stereo not shown) [Nfx, Nifurtimox, reference compound]: the inhibition (usually the drop in the measured response relative to a control, in per cent) at 50 µM in data set [1] turned out to be 83 ± 1.6%. Moreover, in data set [2], the CC50 (commonly the concentration at which the toxic effect on the cells reaches its halfway point) at 48 h was above 90 µM. Also, in data set [3], the IC50 (usually the concentration that inhibits the measured activity by half) is 1.81 ± 0.45 µM.
Turning to `O=C(Cn1ccnc1[N+](=O)[O-])NCc1ccccc1` [Bnz, Benznidazole, reference compound], the inhibition at 50 µM in data set [1] was 45.4 ± 6.21%.
With `Cc1ncc([N+](=O)[O-])n1CCOC(=O)c1ccc(Nc2nnc(-c3cccc(Cl)c3)s2)cc1` [Compound 19, 2-(2-Methyl-5-nitro-1H-imidazol-1-yl)ethyl-4-{[5-(3-chlorophenyl)-1,3,4-thiadiazol-2-yl]amino}benzoate], the melting point (usually the temperature of the solid-liquid transition) is 202 to 204 °C. Further, the inhibition at 50 µM in data set [4] is 31.8 ± 1.95%. For the same compound, in data set [1], the “T. cruzi % Inhibition ± SD (antiproliferative activity)” value (from here on “T. cruzi % Inhibition ± SD”) came to 53.10 ± 3.68% and the inhibition at 50 µM was around 50%. In the data set with Vero cells, the “L. donovani (SI) selectivity index” value is above 8.37 and the “T. cruzi (SI) selectivity index” value is on record as above 8.87. Besides, the CC50 at 48 h in data set [2] was above 500 µM. In addition, the IC50 in data set [5] was 59.7 ± 8.82 µM. Also, the IC50 in data set [3] is 56.3 ± 6.83 µM.
In the case of `C[C@@H]1[C@H](O)[C@@H](C)/C=C/C=C/C=C/C=C/C=C/C=C/C=C/[C@H](O[C@@H]2O[C@H](C)[C@@H](O)[C@H](N)[C@@H]2O)C[C@@H]2O[C@](O)(C[C@@H](O)C[C@@H](O)[C@H](O)CC[C@@H](O)C[C@@H](O)CC(=O)O[C@H]1C)C[C@H](O)[C@H]2C(=O)O` [Aph, Amphotericin B, reference compound], the inhibition at 50 µM in data set [4] came to 62.4 ± 6.6%. The CC50 at 48 h in data set [2] is above 250 µM. Moreover, in data set [5], the IC50 was 0.33 ± 0.02 µM.
Regarding `Cc1ncc([N+](=O)[O-])n1CCOC(=O)c1ccc(Nc2nnc(-c3ccccc3)s2)cc1` [Compound 21, 2-(2-Methyl-5-nitro-1H-imidazol-1-yl)ethyl-4-[(5-phenyl-1,3,4-thiadiazol-2-yl)amino]benzoate], the melting point was 240 to 242 °C. Besides, in data set [4], the inhibition at 50 µM is 71.4 ± 5.28%. In addition, in data set [1], the “T. cruzi % Inhibition ± SD” value is recorded as 58.35 ± 2.05% and the inhibition at 50 µM is around 50%. In the data set on Vero cells, the “L. donovani (SI) selectivity index” value was above 49.65 and the “T. cruzi (SI) selectivity index” value is on record as above 9.01. Besides, the CC50 at 48 h in data set [2] is above 500 µM. In addition, in data set [5], the IC50 is 10.1 ± 2.21 µM. For the same compound, the IC50 in data set [3] was 55.5 ± 7.2 µM.
`Cc1ncc([N+](=O)[O-])n1CCOC(=O)c1ccc(Nc2nnc(-c3ccc(-c4ccccc4)cc3)s2)cc1` [Compound 22, 2-(2-Methyl-5-nitro-1H-imidazol-1-yl)ethyl-4-{[5-((1,1’-biphenyl)-4-yl)-1,3,4-thiadiazol-2-yl]amino}benzoate] returned a melting point above 300 °C. For the same compound, the inhibition at 50 µM in data set [4] is 12.9 ± 2.08%. Besides, the inhibition at 50 µM in data set [1] turned out to be 7 ± 2.28%.
In the same order, the values of `COc1cc(-c2nnc(Nc3ccc(C(=O)OCCn4c([N+](=O)[O-])cnc4C)cc3)s2)cc(OC)c1OC` [Compound 23, 2-(2-Methyl-5-nitro-1H-imidazol-1-yl)ethyl-4-{[5-(3,4,5-trimethoxyphenyl)-1,3,4-thiadiazol-2-yl]amino}benzoate] are 252 °C, 12.7 ± 2.31% and 20.3 ± 6.73%.
In turn, `Cc1ncc([N+](=O)[O-])n1CCOC(=O)c1ccc(Nc2nnc(-c3ccc(Cl)cc3)s2)cc1` [Compound 20, 2-(2-Methyl-5-nitro-1H-imidazol-1-yl)ethyl-4-{[5-(4-chlorophenyl)-1,3,4-thiadiazol-yl]amino}benzoate] showed a melting point of 242 to 244 °C. Moreover, in data set [4], the inhibition at 50 µM is 40.4 ± 4.18%. Moreover, in data set [1], the “T. cruzi % Inhibition ± SD” value was determined as 49.37 ± 4.45% and the inhibition at 50 µM is around 50%. Further, in the data set with Vero cells, the “L. donovani (SI) selectivity index” value is recorded as above 9.17 and the “T. cruzi (SI) selectivity index” value was above 9.67. The half-maximal cytotoxic concentration (CC50) at 48 h in data set [2] was above 500 µM. The IC50 in data set [5] was 54.5 ± 8.51 µM. For the same compound, the IC50 in data set [3] was 51.7 ± 6.59 µM.
Take `Cc1ncc([N+](=O)[O-])n1CCO` [Mtz, Metronidazole, reference compound]: the inhibition at 50 µM in data set [1] came to 12.2 ± 5.3%. Further, the IC50 in data set [5] was 50.3 ± 11.9 µM; in data set [3], 180 ± 18.9 µM.
Consider `Cc1ncc([N+](=O)[O-])n1CCOC(=O)c1ccc(Nc2nnc(-c3cccnc3)s2)cc1` [Compound 18, 2-(2-Methyl-5-nitro-1H-imidazol-1-yl)ethyl-4-[(5-(pyridin-3-yl)-1,3,4-thiadiazol-2-yl]amino)benzoate], for which the melting point lay within 232 to 234 °C. Moreover, the inhibition at 50 µM in data set [4] came to 10.1 ± 2.92%. For the same compound, in data set [1], the inhibition at 50 µM amounted to 17.4 ± 14.4%.
